Measured values: ChEMBL document CHEMBL1201862, “PubChem BioAssay data set” (2004)
Active and inactive are the calls of the source.

Legend:
[1] = A549 cell cytotoxicity, dose response, CellTiter-Glo luminescence, dry powder, set 17 (AID 1117284); format: functional, cell-based
[2] = A549 cell cytotoxicity, dose response, cytotoxicity control, 24 h, CellTiter-Glo luminescence, cherry-picks (AID 1053115); format: functional, cell-based; conditions: A549, 24 h
[3] = T. cruzi intracellular amastigote growth inhibition, dose response, imaging, CA-I/72 strain, bovine embryo skeletal muscle, dry powder (AID 651885); format: functional, cell-based
[4] = T. cruzi growth inhibition in host cells, dose response, cell-based, plate reader, dry powder, set 2 (AID 652275); format: functional
[5] = growth inhibition of intracellular T. cruzi, dose response, cell-based, plate reader, dry powder samples (AID 651845); format: functional
[6] = Luminescence-based cell-based high throughput dose response assay to identify activators of the DAF-12 from the parasite S. stercoralis (ssDAF-12).; format: functional
[7] = target: T1, Oxysterols receptor LXR-beta (Homo sapiens, UniProt P55055); experiment: LXR agonists, Gal4 luciferase reporter, dose response, counter-screen for ssDAF-12 agonist project, cell-based, luminescence, HEK293, S. stercoralis campaign (AID 720737); format: functional; conditions: read-out: IC50 (the source's name)
T1 sequence (P55055 whole entry): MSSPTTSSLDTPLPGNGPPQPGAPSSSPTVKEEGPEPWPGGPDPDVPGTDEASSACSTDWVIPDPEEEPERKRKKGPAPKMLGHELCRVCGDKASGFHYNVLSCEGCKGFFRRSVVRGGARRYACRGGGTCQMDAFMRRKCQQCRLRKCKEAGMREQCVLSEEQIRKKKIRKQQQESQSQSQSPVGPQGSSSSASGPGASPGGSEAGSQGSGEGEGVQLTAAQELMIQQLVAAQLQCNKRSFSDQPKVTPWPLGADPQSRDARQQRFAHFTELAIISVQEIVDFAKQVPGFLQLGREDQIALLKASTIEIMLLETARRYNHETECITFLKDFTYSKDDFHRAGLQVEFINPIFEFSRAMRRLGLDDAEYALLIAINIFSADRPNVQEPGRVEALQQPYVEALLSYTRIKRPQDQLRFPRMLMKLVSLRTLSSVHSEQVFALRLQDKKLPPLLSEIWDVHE

[8] = NIH:OVCAR-3 ovarian cancer cell cytotoxicity, dose response, PAX8 inhibitor project, plate reader, dry powder samples (AID 743044); format: functional, cell-based
[9] = A2780 ovarian cancer cell cytotoxicity, dose response, cytotoxicity control, plate reader, dry powder samples (AID 743046); format: functional, cell-based
[10] = cytotoxicity in OVCAR8 ovarian cancer cells, dose response, PAX8 project, cell-based, plate reader, dry powder samples (AID 743197); format: functional; conditions: OVCAR-8
[11] = target: Paired box protein Pax-8 (Homo sapiens, UniProt Q06710); experiment: inhibitors of PAX8-driven TPO luciferase reporter, dose response, RMG-I cells, cherry-pick (AID 687027); format: functional, cell-based;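 note: luciferase reporter driven by Pax8 target thyroperoxidase promoter measured by SteadyGlo luminescence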
[12] = HepG2 cell cytotoxicity, dose response, cytotoxicity control, luminescence plate reader, powder samples, set 2 (AID 651860); format: functional, cell-based
[13] = target: Vasopressin V1b receptor (Homo sapiens, UniProt P47901); experiment: Late-stage results from the probe development effort to identify antagonists of arginine vasopressin receptor 1a (AVPR1a): fluorescence-based cell-based dose response AVPR1b inhibition counterscreen assay.; format: functional
[14] = Late-stage results from the probe development effort to identify antagonists of arginine vasopressin receptor 1a (AVPR1a): fluorescence-based cell-based dose response OXTR inhibition counterscreen assay.; format: functional
[15] = Late-stage results from the probe development effort to identify antagonists of arginine vasopressin receptor 1a (AVPR1a): fluorescence-based cell-based dose response AVPR1a inhibition assay.; format: functional
[16] = target: Vasopressin V2 receptor (Homo sapiens, UniProt P30518); experiment: Late-stage results from the probe development effort to identify antagonists of arginine vasopressin receptor 1a (AVPR1a): fluorescence-based cell-based dose response AVPR2 inhibition counterscreen assay.; format: functional
[17] = HepG2 cell cytotoxicity, dose response, cytotoxicity control, ATP luminescence, dry powder, set 2 (AID 743129); format: functional, cell-based
[18] = HEK293 cell cytotoxicity, dose response, cytotoxicity control, ATP luminescence, dry powder, set 3 (AID 743131); format: functional, cell-based
[19] = A549 cell cytotoxicity, dose response, cytotoxicity control, CellTiter-Glo luminescence, dry powder, set 5 (AID 743158); format: functional, cell-based
[20] = P. falciparum Dd2 growth inhibitors, dose response, SYBR Green, dry powder samples, set 9 (AID 1159568); format: functional, cell-based

Sequence of Paired box protein Pax-8 (Q06710 whole entry): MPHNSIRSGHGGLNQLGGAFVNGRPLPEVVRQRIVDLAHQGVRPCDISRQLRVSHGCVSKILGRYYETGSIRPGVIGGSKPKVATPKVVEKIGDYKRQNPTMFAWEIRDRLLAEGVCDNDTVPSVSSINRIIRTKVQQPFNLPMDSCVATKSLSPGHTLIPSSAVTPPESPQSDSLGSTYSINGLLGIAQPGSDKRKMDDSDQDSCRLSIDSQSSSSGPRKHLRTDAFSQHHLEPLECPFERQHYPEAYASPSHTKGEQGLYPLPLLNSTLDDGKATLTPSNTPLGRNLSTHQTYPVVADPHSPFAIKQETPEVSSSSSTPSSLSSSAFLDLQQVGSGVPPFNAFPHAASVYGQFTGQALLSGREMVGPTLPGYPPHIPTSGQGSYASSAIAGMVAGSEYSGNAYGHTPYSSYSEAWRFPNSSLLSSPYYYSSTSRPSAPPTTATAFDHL
Sequence of Vasopressin V1b receptor (P47901 whole entry): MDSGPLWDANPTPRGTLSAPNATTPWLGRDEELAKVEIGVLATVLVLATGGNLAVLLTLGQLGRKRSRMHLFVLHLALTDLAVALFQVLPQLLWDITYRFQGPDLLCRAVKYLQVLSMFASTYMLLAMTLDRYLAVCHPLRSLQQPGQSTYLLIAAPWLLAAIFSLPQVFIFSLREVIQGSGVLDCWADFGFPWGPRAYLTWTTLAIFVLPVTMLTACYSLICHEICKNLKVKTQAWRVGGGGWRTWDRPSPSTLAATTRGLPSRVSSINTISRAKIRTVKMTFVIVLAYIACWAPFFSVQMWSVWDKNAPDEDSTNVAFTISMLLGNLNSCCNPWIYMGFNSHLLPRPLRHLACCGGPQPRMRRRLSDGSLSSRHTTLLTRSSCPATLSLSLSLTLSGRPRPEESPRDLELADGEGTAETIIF
Sequence of Vasopressin V2 receptor (P30518 whole entry): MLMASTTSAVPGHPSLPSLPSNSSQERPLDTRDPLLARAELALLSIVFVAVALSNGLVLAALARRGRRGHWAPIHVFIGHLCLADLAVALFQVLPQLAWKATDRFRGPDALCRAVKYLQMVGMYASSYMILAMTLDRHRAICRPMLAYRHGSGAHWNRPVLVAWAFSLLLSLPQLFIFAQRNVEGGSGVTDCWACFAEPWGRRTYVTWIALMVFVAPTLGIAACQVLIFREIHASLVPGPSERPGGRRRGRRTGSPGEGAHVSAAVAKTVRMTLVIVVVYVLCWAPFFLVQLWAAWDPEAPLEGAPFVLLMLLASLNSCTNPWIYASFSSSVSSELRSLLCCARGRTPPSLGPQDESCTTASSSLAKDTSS

C[C@H](CO)N1C[C@H](C)[C@@H](CN(C)Cc2ccc(-c3ccccc3)cc2)Oc2cc(C#C[C@@H](C)O)ccc2S1(=O)=O
AC50 [1]: 42.5 µM (active) | AC50 [2]: 52.6 µM (active)

C[C@@H]1CN(C)C(=O)c2cccc(NC(=O)c3ccncc3)c2O[C@H]1CN(C)Cc1ccc(Oc2ccccc2)cc1
IC50 [3]: 10 µM (inconclusive) | AC50 [4]: 0.00506 µM (active) | AC50 [5]: 0.0381 µM (active)

O=C(CCN1C(=O)C2C3CCC(C3)C2C1=O)Nc1ccccc1C(F)(F)F (stereo not given)
IC50 [6]: > 67.6 µM (inactive) | EC50 [7]: > 67.6 µM (inactive)

Cc1cccc(S(=O)(=O)N2C[C@@H](O)COC[C@@H]3O[C@@H](CC(=O)Nc4ccc(-c5ccccc5)cc4)CC[C@H]32)c1
AC50 [8]: 43.4 µM (active) | AC50 [9]: 23.2 µM (active) | AC50 [10]: 53.1 µM (active) | AC50 [11]: 10.7 µM (active)

Cc1cc(C)c(S(=O)(=O)Nc2cc(C(C(=O)OC(C)C)C(=O)C(F)(F)F)c(O)c3ccccc23)c(C)c1 (stereo not given)
AC50 [12]: > 52 µM (inactive)

Cc1ccccc1N1CCN(C(=O)N(CC2CC2)c2ccc(Cl)cc2)CC1
IC50 [13]: 12.8 µM (inactive) | IC50 [14]: 0.046 µM (active) | IC50 [15]: 0.0027 µM (active) | IC50 [16]: 1.02 µM (active)

CCOC(=O)c1c(-c2ccc(-c3ccccc3)cc2)csc1NC(=O)CNCCN(C)C
AC50 [17]: 16.5 µM (active) | AC50 [18]: 13.3 µM (active) | AC50 [19]: 17.1 µM (active)

C[C@@H]1CCCCO[C@H](CN(C)S(=O)(=O)c2ccc(F)cc2)[C@@H](C)CN([C@H](C)CO)C(=O)c2cc(N(C)C)ccc2O1
AC50 [20]: 11.4 µM (active)
